Assay results from US11479587B2, “Cationic intrinsically disordered antimicrobial peptides” (priority 2016, dated 2022).
Several values for one entry are separate records, joined by “and”; a condition that tells them apart may be missing. Equal entries are not always repeated. Residues, ends and D or L forms follow the SMILES beside them.

B1: biotinylated rhHRNR2591-2694: biotinylated rhHRNR2591-2694, a 103 amino acid fragment of hornerin (protein)
chain: SQHGSGSGHSSGYGQHGSRSGQSSRGERHGSSSGSSSHYGQHGSGSRQSSGHGRQGSGSGQSPSRGRHGSGLGHSSSHGQHGSGSGRSSSRGPYESRLGHSSVF
modifications: biotinylated (position not given)
notes: biotinylated rhHRNR2591-2694, a 103 amino acid fragment of hornerin

Experiments:
[1] = Cytotoxicity (resazurin) assay
In short: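 CC50 values were derived by fitting concentration-dependent percentage cytotoxicity to a dose–response function. The read-out was resazurin fluorescence (ex 560, em 590 nm; 100 μM, 3 h) after 20 h compound treatment of HEK293 cells at 37 °C in DMEM with 10% FBS.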

[2] = test system: A. baumannii ATCC 19606; assay type: cell-based, Acinetobacter baumannii; settings: ATCC 19606, 2 h
Experimental: (§1) Inhibition of bacterial growth was determined using resazurin as a marker for cell viability. Resazurin was added to each well, at 0.001% final concentration, and plates incubated at 37° C. for 2 h. Fluorescence intensity was measured, using F (top read), ex 560/10 nm, em 590/10 nm, using a Tecan M1000 Pro monochromator plate reader.

[3] = test system: C. neoformans
[4] = test system: E. coli ATCC 25922; assay type: cell-based, Escherichia coli; settings: ATCC 25922, 2 h
Experimental: as §1

[5] = test system: P. aeruginosa ATCC 27853; assay type: cell-based, Pseudomonas aeruginosa; settings: ATCC 27853, 2 h
Experimental: as §1

[6] = test system: multidrug-resistant K. pneumoniae ATCC 700603; assay type: cell-based, Klebsiella pneumoniae
Experimental: The Gram-negative opportunistic pathogen K. pneumoniae is responsible for a spectrum of community-acquired and nosocomial infections and typically infects patients with indwelling medical devices, on which this microorganism is able to grow as a biofilm.
A sample of each culture was then diluted 40-fold in fresh broth and incubated at 37° C. for 1.5-3 h. […] All the plates were covered and incubated at 37° C. for 18 h.
as §1

[7] = Hemolysis assay; assay type: cell-based; settings: for HC50 at 1 h: human, washed erythrocytes from EDTA-blood, pH 7.4
In short: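 Washed EDTA-blood erythrocytes in 5% PBS, pH 7.4, were rotated 1 h at 37° C with peptides at 0, 3, 10, 30, 60 μm. Hemoglobin release read at 540 nm as % of 0.1% Triton X-100 hemolysis; CC50 from dose-response curve of triplicates.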

[8] = test system: methicillin-resistant S. aureus strain (ATCC 43300); assay type: cell-based, Staphylococcus aureus; settings: ATCC 43300, 18 h
[9] = test system: C. albicans ATCC 928; settings: for MIC, C. albicans ATCC 90028: ATCC 928
[10] = test system: E. coli ribosomal proteins; assay: Immunodotblot binding to HPLC-separated ribosomal proteins; settings: 10 μg/ml, 4° C. overnight, dot blot
Source text: The question whether CIDAMP-dependent morphological changes in bacteria are direct or indirect was addressed by testing the hypothesis that CIDAMPs directly bind to ribosomes and ribosomal proteins. For this purpose, ribosomes of E. coli were separated and partially purified by SulfoLink®-coupling resin-chromatography (Maguire et al., 2008, RNA, 14, 188-195) followed by reversed phase high performance liquid chromatography (HPLC) using an Aeris 3.6 μm C18 widepore RP-HPLC column (Phenomenex) and an increasing gradient of acetonitrile (ACN, max.: 80% v/v) in aqueous 0.1% trifluoroacetic acid.
Aliquots of each HPLC fraction were lyophilized, the residues dissolved in 5 μl water each and then applied to a nitrocellulose membrane. After blocking with 5% bovine serum albumin in PBS and washing with PBS, biotinylated rhHRNR2591-2694, a 103 amino acid fragment of hornerin, (10 μg/ml) was added and incubated at 4° C. overnight. After 4-times washing, Strep-Tactin® (1:200; iba lifescience) in PBS was added, incubated for 1 h and then, after 6 times washing with PBS, substrate was added and the blots developed.

| Molecule | CC50 [1] | MIC, A. baumannii ATCC 19606 [2] | MIC, C. neoformans ATCC 208821 [3] | MIC, E. coli ATCC 25922 [4] | MIC, P. aeruginosa ATCC 27853 [5] | MIC, K. pneumoniae ATCC 700603 [6] | HC50 [7] | HC50 at 1 h [7] | MIC, S. aureus ATCC 43300 [8] | MIC, C. albicans ATCC 90028 [9] | MIC ([9]; ATCC 928, 18 h, pH 7.4) | binding to ribosomal proteins (in words) [10] |
| --- | --- | --- | --- | --- | --- | --- | --- | --- | --- | --- | --- | --- |
| CCCCCCCCCCCCCCCC(=O)NCC(=O)N[C@H](CCCNC(=N)N)C(=O)N[C@H](CCCNC(=N)N)C(=O)NCC(=O)NCC(=O)N[C@H](CCCNC(=N)N)C(=O)NCC(=O)NCC(=O)N[C@H](CCCNC(=N)N)C(=O)NCC(=O)N[C@H](CCCNC(=N)N)C(=O)NCC(=O)N[C@H](CCCNC(=N)N)C(=O)O [D-Pal-GR13] (HELM PEPTIDE1{[CCCCCCCCCCCCCCCC(=O)[*:2]].G.[dR].[dR].G.G.[dR].G.G.[dR].G.[dR].G.[dR]}$$$$V2.0) | > 32 µg/mL and > 20.1 µM | ≥8 µg/mL | ≥2 µg/mL | ≥8 µg/mL | ≥16 µg/mL | ≥32 µg/mL | 65 µg/mL | 24.5 µM | ≥2 µg/mL | ≥8 µg/mL |  |  |
| CCCCCCCCCCCCCCCC(=O)NCC(=O)N[C@@H](CCCNC(=N)N)C(=O)N[C@@H](CCCNC(=N)N)C(=O)NCC(=O)NCC(=O)N[C@@H](CCCNC(=N)N)C(=O)NCC(=O)NCC(=O)N[C@@H](CCCNC(=N)N)C(=O)NCC(=O)N[C@@H](CCCNC(=N)N)C(=O)NCC(=O)N[C@@H](CCCNC(=N)N)C(=O)O [Pal-GR13] (HELM PEPTIDE1{[CCCCCCCCCCCCCCCC(=O)[*:2]].G.R.R.G.G.R.G.G.R.G.R.G.R}$$$$V2.0) | > 32 µg/mL and > 20.1 µM | ≥2 µg/mL | ≥0.25 µg/mL | ≥4 µg/mL | ≥8 µg/mL | ≥16 µg/mL | 100 µg/mL | 62 µM | ≥0.25 µg/mL | ≥4 µg/mL | 1 to 32 µg/mL |  |
| B1 |  |  |  |  |  |  |  |  |  |  |  | specific binding |
